Test systems include HL-60; MCF7; RXF 393; T47D; TK-10; HCC 2998; KM12; SK-MEL-28; OVCAR-3; OVCAR-4; PC-3; SF-539; ACHN; HCT-15; UACC-62; NCI-H460; SK-OV-3; SK-MEL-5; IGROV-1; CAKI-1.
Experiment in all cases: NCI tumour cell line growth inhibition, 48 h

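Briefly, cells in 96-well plates were exposed to five compound concentrations for 48 h, and endpoints were estimated by linear interpolation. The concentration for 50% growth inhibition is given as GI50.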 The source made the active and inactive calls. Cut-off read from the data, not from the text of the source: active = GI50 up to about 1.1 µM and inactive = higher. Where only a bound is given, the exact number is not on record here.

Regarding `C[N+](C)(C)c1ncnc2c1ncn2C1CCCO1` (stereo not given), the GI50 in the assay on HL-60 is 56.4 µM (inactive); in the assay with MCF7 it was > 100 µM (inactive); in the assay with RXF 393, > 100 µM (inactive); in the assay with T47D, > 100 µM (inactive); in the assay with TK-10, > 100 µM (inactive); in the assay on HCC 2998, > 100 µM (inactive). In addition, the GI50 with KM12, in the assay with SK-MEL-28, in the assay on OVCAR-3, in the assay on OVCAR-4, in the assay on PC-3 and in the assay on SF-539 was > 100 µM (inactive) in each case. The GI50 in the assay with ACHN was > 100 µM (inactive); in the assay on HCT-15 it was greater than 100 µM; in the assay with UACC-62, > 100 µM (inactive); with NCI-H460 it was > 100 µM (inactive); in the assay on SK-OV-3, > 100 µM (inactive); with SK-MEL-5, > 100 µM (inactive). Further, the GI50 with IGROV-1 is > 100 µM (inactive).

As to `CCOC(=O)c1sc2[n+](c1C)C(=O)/C(=C/c1ccc([N+](=O)[O-])cc1)S2`, the GI50 in the assay with HL-60 is 75.7 µM (inactive); in the assay with MCF7, 21.2 µM (inactive); in the assay on RXF 393, 29.8 µM (inactive); in the assay with T47D it was 25.5 µM (inactive); with TK-10 it was 20.6 µM (inactive); in the assay with HCC 2998 it was 17.2 µM (inactive). For the same molecule, the GI50 in the assay on KM12 is 18.4 µM (inactive); with SK-MEL-28, 27.4 µM (inactive); in the assay with OVCAR-3, 9.08 µM (inactive); in the assay with CAKI-1, 15.1 µM (inactive); in the assay with OVCAR-4 it was 56.5 µM (inactive); in the assay on PC-3 it was 18.9 µM (inactive). Also, the GI50 in the assay with SF-539 is 21.2 µM (inactive); with ACHN, 30.6 µM (inactive); in the assay on UACC-62, 17.9 µM (inactive); with NCI-H460, 19.7 µM (inactive); with SK-OV-3 it was 23.8 µM (inactive); in the assay on SK-MEL-5, 38.8 µM (inactive).

In the case of `CC(C)/C(Cl)=N/OC(=O)Nc1cccc(C(F)(F)F)c1`, the GI50 with HL-60 is 0.778 µM (active); in the assay with MCF7 it was 5.35 µM (inactive); in the assay on RXF 393 it was 5.9 µM (inactive); in the assay with T47D, 4.1 µM (inactive); in the assay on TK-10, 3.5 µM (inactive); in the assay with HCC 2998 it was 15.8 µM (inactive). Further, the GI50 in the assay with KM12 was 15.3 µM (inactive); with SK-MEL-28, 5.45 µM (inactive); in the assay on OVCAR-3, 3.84 µM (inactive); in the assay with CAKI-1, 1.75 µM (inactive); in the assay on OVCAR-4, 7.05 µM (inactive); in the assay with PC-3, 16.2 µM (inactive). Further, the GI50 in the assay on ACHN is 1.69 µM (inactive); in the assay with HCT-15 it was 1.82 µM; in the assay with UACC-62, 13.6 µM (inactive); in the assay on NCI-H460, 17.8 µM (inactive); in the assay with SK-OV-3, 17.7 µM (inactive); in the assay with SK-MEL-5 it was 8.05 µM (inactive). In the assay on IGROV-1, the GI50 is 13.4 µM (inactive).

Regarding `O=c1c(Cc2ccc(Cl)cc2)nnc2sc(-c3ccc(-c4ccc(F)c(Cl)c4)o3)nn12`, the GI50 with HL-60 is 43.7 µM (inactive); in the assay on MCF7 it was 32.7 µM (inactive); in the assay with RXF 393, > 100 µM (inactive); in the assay on T47D, 80.2 µM (inactive); with TK-10, > 100 µM (inactive); in the assay on HCC 2998 it was > 100 µM (inactive). In addition, the GI50 in the assay on KM12 is 91.2 µM (inactive); in the assay with SK-MEL-28 it was > 100 µM (inactive); in the assay on CAKI-1, 43 µM (inactive); in the assay with OVCAR-4 it was 42.1 µM (inactive); in the assay on PC-3 it was 57.1 µM (inactive); with SF-539, > 100 µM (inactive). The GI50 with ACHN was 35.7 µM (inactive); in the assay with HCT-15, 34.9 µM; in the assay with UACC-62 it was 53.2 µM (inactive); with NCI-H460, 55 µM (inactive); with SK-OV-3 it was > 100 µM (inactive); in the assay with SK-MEL-5 it was > 100 µM (inactive). The GI50 with IGROV-1 was 72.3 µM (inactive).

Take `Cc1ccc(NC(=O)c2cc(S(=O)(=O)Nc3n[nH]c(=O)n3-c3ccccc3)c(S)cc2Cl)cc1`: the GI50 with HL-60, in the assay on MCF7, in the assay with RXF 393, in the assay with T47D, in the assay with TK-10 and in the assay with HCC 2998 was > 100 µM (inactive) throughout. For the same molecule, the GI50 in the assay on KM12, in the assay with SK-MEL-28, in the assay on OVCAR-3, in the assay on CAKI-1, with OVCAR-4 and in the assay on PC-3 was > 100 µM (inactive) each time. For the same molecule, the GI50 in the assay with SF-539 was > 100 µM (inactive); in the assay with HCT-15, greater than 100 µM; in the assay on UACC-62, > 100 µM (inactive); in the assay with NCI-H460, > 100 µM (inactive); in the assay with SK-OV-3 it was > 100 µM (inactive); with SK-MEL-5 it was > 100 µM (inactive). In addition, in the assay on IGROV-1, the GI50 was > 100 µM (inactive).

Regarding `CC(=O)N1C(Nc2nccs2)CCN1c1ccccc1` (stereo not given), the GI50 in the assay on HL-60, in the assay on MCF7, in the assay on RXF 393, in the assay with T47D, in the assay on TK-10 and in the assay with HCC 2998 was > 10 µM (inactive) throughout. The GI50 in the assay with SK-MEL-28, with OVCAR-3, in the assay on CAKI-1, in the assay on OVCAR-4, with PC-3 and with SF-539 was > 10 µM (inactive) in each case. Further, the GI50 in the assay with ACHN is > 10 µM (inactive); in the assay with HCT-15, greater than 10 µM; in the assay with NCI-H460, > 10 µM (inactive); with SK-MEL-5, > 10 µM (inactive); in the assay with IGROV-1, > 10 µM (inactive).

Consider `COC(=O)n1c(=O)n(-c2ccccc2)c(=O)n1C(=O)OC`, for which the GI50 in the assay on HL-60, in the assay on MCF7, in the assay on RXF 393, with T47D, in the assay on TK-10 and in the assay on HCC 2998 was > 100 µM (inactive) in each case. In addition, the GI50 in the assay on KM12, with SK-MEL-28, with OVCAR-3, in the assay on CAKI-1, in the assay with OVCAR-4 and with PC-3 was > 100 µM (inactive) throughout. For the same molecule, the GI50 was > 100 µM (inactive) in the assay with SF-539; greater than 100 µM in the assay on HCT-15; > 100 µM (inactive) in the assay on UACC-62; > 100 µM (inactive) in the assay with NCI-H460; > 100 µM (inactive) with SK-OV-3; > 100 µM (inactive) with SK-MEL-5. In addition, in the assay on IGROV-1, the GI50 is > 100 µM (inactive).

As for `CC(=O)c1c[nH]cc1CO`, the GI50 in the assay on HL-60, with MCF7, in the assay on RXF 393, in the assay on T47D, in the assay on TK-10 and in the assay on HCC 2998 was > 10 µM (inactive) in each case. The GI50 in the assay on KM12, in the assay with SK-MEL-28, in the assay on OVCAR-3, in the assay on CAKI-1, with PC-3 and in the assay on SF-539 was > 10 µM (inactive) throughout. Besides, the GI50 in the assay on ACHN is > 10 µM (inactive); with HCT-15 it was greater than 10 µM; with NCI-H460, > 10 µM (inactive); with SK-OV-3, > 10 µM (inactive); with SK-MEL-5 it was > 10 µM (inactive); with IGROV-1 it was > 10 µM (inactive).

Turning to `Cc1ccc(Cc2n[nH]c(=O)n2-c2ccccc2)cc1`, the GI50 in the assay on HL-60 is > 100 µM (inactive); with MCF7, > 100 µM (inactive); in the assay with RXF 393, 20.2 µM (inactive); in the assay with T47D it was 0.652 µM (active); in the assay with TK-10 it was > 100 µM (inactive); with HCC 2998, > 100 µM (inactive). In addition, the GI50 with KM12, in the assay with SK-MEL-28, in the assay with CAKI-1, in the assay with PC-3, in the assay with SF-539 and in the assay on ACHN was > 100 µM (inactive) throughout. For the same molecule, the GI50 was greater than 100 µM in the assay with HCT-15; 55.3 µM (inactive) with UACC-62; > 100 µM (inactive) in the assay on NCI-H460; > 100 µM (inactive) in the assay on SK-MEL-5; > 100 µM (inactive) in the assay on IGROV-1.

On to `COC(=O)/C(C#N)=C(/NCCN)Nc1ccccc1`, for which the GI50 in the assay on HL-60, in the assay with MCF7, with RXF 393, with T47D, in the assay with TK-10 and in the assay on HCC 2998 was > 100 µM (inactive) each time. The GI50 in the assay with SK-MEL-28, in the assay on OVCAR-3, in the assay with CAKI-1, in the assay on OVCAR-4, in the assay with PC-3 and in the assay on SF-539 was > 100 µM (inactive) throughout. Moreover, the GI50 in the assay with ACHN was > 100 µM (inactive); with HCT-15, greater than 100 µM; in the assay on NCI-H460, > 100 µM (inactive); with SK-OV-3, > 100 µM (inactive); with SK-MEL-5, > 100 µM (inactive); with IGROV-1, > 100 µM (inactive).

As for `CC(=O)Oc1ccc2oc(=O)cc(C)c2c1`, the GI50 with HL-60, in the assay with MCF7, in the assay with RXF 393, in the assay with T47D, in the assay on TK-10 and in the assay with HCC 2998 was > 100 µM (inactive) each time. Also, the GI50 with KM12 was > 100 µM (inactive); with SK-MEL-28 it was > 100 µM (inactive); with OVCAR-3, > 100 µM (inactive); in the assay on CAKI-1 it was > 100 µM (inactive); with OVCAR-4 it was > 100 µM (inactive); in the assay with PC-3, > 10 µM (inactive). Besides, the GI50 in the assay with SF-539, in the assay on ACHN, in the assay on NCI-H460, in the assay on SK-MEL-5 and with IGROV-1 was > 100 µM (inactive) throughout.

The record behind these values is ChEMBL document CHEMBL1201862, “PubChem BioAssay data set” (2004).
